# Reference: patent US12421254B2, “KRAS modulators and uses thereof” (Quanta Therapeutics, Inc., priority 2023, dated 2025)
# What was measured:
# KRAS G12V/RAF1 = target: T1, KRAS G12V/RAF1 (Homo sapiens, UniProt P01116, G12V); experiment: Protein-protein interaction (PPI) HTRF assay KRAS G12V/RAF1; type: binding; details: Table 3
# T1 construct: KRAS (1-169) proteins were expressed in BL21 (DE3)-CodonPlus E. coli; His6-MBP (N, cleaved yes)
# Experimental: (§1) When RAS proteins are in the active GTP-bound conformation, they bind the effector protein RAF1 at the N-terminus Ras-binding domain (RBD, residues 52-131) (Tran, et al., 2021). Homogenous time resolved fluorescence (HTRF) was used to monitor the interaction between wt or mutant KRAS and RAF1 or wt NRAS and RAF1. Compounds were assayed in the presence of KRAS G12D/V and RAF1 versus wt KRAS to assess activity against mutant and w.t. KRAS. Similarly, compounds were then assayed in the presence of w.t. NRAS and RAF1 to assess RAS isoform selectivity. In all assay formats, His-tagged RAF1 protein was incubated with the HTRF donor, anti-6His Tb Cryptate gold (Cisbio 61DB10RDF), and biotinylated RAS proteins were incubated with the HTRF acceptor, streptavidin-d2 (CisBio 610SADLA). The intensity of the fluorescence signal emitted is proportional to binding between the two proteins. The donor solution was prepared by mixing 16 nM His-tagged RAF1 in protein dilution buffer with 1:100 anti-6His Tb cryptate in PPI-Terbium detection buffer. 16 nM biotinylated RAS protein was diluted into protein dilution buffer (50 mM Tris-HCl pH 7.5, 150 mM NaCl, 0.1 mM MgCl2, 1 mM TCEP, 0.005% Tween20) and mixed with 1:2000 Streptavidin-d2 diluted in PPI-Terbium detection buffer (CisBio 61DB10RDF). 50× compound in DMSO was mixed with 16 nM KRAS-acceptor solution and incubated for 30 minutes at room temperature. After compound pre-incubation with KRAS, the RAF1 donor solution was added to the KRAS-acceptor solution and incubated for 1 hour at room temperature. The fluorescence signal emitted was monitored at 665 nm and 615 nm using an Envision multimode plate reader. The HTRF ratio (665/615) was calculated and normalized to 0% inhibition in the absence of compound and 100% inhibition in the presence of untagged RAF1 protein. PPI KRAS G12D/RAF1, KRAS G12V/RAF1, w.t. KRAS/RAF1 and NRAS/RAF1 IC50 (uM) values of selected compounds are depicted in Table 3 and Table 4 with compounds having a value <0.1 uM as ++++; ≥0.1 uM to 1 uM as +++; ≥1 uM to 10 uM as ++; ≥10 uM to 100 uM as +; and ≥100 uM as NA.
# [1] = target: GST-tagged KRAS-G12V (2-169) (Homo sapiens, UniProt P01116, G12V); experiment: Nucleotide exchange assay (NEA), SOS-mediated, HTRF, KRAS G12V; type: biochemical; details: Table 4; IC50 extracted at 90 min; 80 nM SOS
# Procedure, shortened: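 GST-KRAS-G12V (2-169), 0.25 nM, pre-incubated 1 h at RT with compound, then SOS1cat (564-1049) 80 nM and GTP-DY-647P1 150 nM added in HEPES pH 7.3 buffer with MgCl2 and DTT. HTRF via anti-GST Tb cryptate read over 90 min; IC50 from 4-parameter fit at 90 min, blanked to no-SOS reactions.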
# w.t. KRAS/RAF1 = target: T2, w.t. KRAS/RAF1 (Homo sapiens, UniProt P01116); experiment: Protein-protein interaction (PPI) HTRF assay w.t. KRAS/RAF1; type: binding; details: Table 3; wt KRAS/RAF1
# T2 construct: KRAS (1-169) proteins were expressed in BL21 (DE3)-CodonPlus E. coli; His6-MBP (N, cleaved yes)
# Experimental: as §1
# Chain of GST-tagged KRAS-G12V (2-169) (P01116 2-169 isoform P01116-2 G12V): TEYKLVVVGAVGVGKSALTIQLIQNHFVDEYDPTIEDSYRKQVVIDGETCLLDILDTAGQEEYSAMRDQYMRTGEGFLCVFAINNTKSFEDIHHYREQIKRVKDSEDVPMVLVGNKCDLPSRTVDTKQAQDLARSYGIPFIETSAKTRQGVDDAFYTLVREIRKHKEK
# T2 sequence (P01116 with tags, fused parts or gaps isoform P01116-2): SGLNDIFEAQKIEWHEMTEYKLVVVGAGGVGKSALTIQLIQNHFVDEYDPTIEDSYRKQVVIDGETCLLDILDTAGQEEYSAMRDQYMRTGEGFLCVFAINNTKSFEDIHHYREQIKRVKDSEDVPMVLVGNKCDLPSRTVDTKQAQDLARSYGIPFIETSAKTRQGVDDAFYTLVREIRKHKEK
# T1 sequence (P01116 with tags, fused parts or gaps isoform P01116-2 G12V): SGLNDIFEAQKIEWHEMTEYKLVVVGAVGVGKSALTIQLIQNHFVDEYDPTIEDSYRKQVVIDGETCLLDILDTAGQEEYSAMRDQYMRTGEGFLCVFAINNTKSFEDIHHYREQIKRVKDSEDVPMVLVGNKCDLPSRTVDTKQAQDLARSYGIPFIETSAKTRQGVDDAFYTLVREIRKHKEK
structure (smiles),measurement,setting,value
"N#Cc1c(N)sc2c1C1(CC2)CN(c2nc(OCC34CCCN3CC(F)C4)nc(N3CC4CCC(C3)N4)n2)C1 [Compound 1, 2-amino-1′-[4-(3,8-diazabicyclo[3.2.1]octan-3-yl)-6-[[(2R,8S)-2-fluoro-1,2,3,5,6,7-hexahydropyrrolizin-8-yl]methoxy]-1,3,5-triazin-2-yl]spiro[5,6-dihydrocyclopenta[b]thiophene-4,3′-azetidine]-3-carbonitrile]",IC50,KRAS G12V/RAF1,0.1 to 1 µM
same,IC50,[1],10 to 100 nM
same,IC50,w.t. KRAS/RAF1,1 to 10 µM
"N#Cc1c(N)sc2c1C1(CC2)CN(c2nc(OCC3(CN4CCOCC4)CC3)nc(N3C[C@H]4CC[C@@H](C3)N4)n2)C1 [Compound 2, 2-amino-1′-[4-[[1-(morpholinomethyl)cyclopropyl]methoxy]-6-[(1R,5S)-3,8-diazabicyclo[3.2.1]octan-3-yl]-1,3,5-triazin-2-yl]spiro[5,6-dihydrocyclopenta[b]thiophene-4,3′-azetidine]-3-carbonitrile]",IC50,KRAS G12V/RAF1,1 to 10 µM
same,IC50,[1],100 to 1000 nM
same,IC50,w.t. KRAS/RAF1,1 to 10 µM
"N#Cc1c(N)sc2c1C1(CCC2)CN(c2nc(OCC3(CN4CCOCC4)CC3)nc(N3C[C@H]4CC[C@@H](C3)N4)n2)C1 [Compound 3, 2-amino-1′-[4-[(1R,5S)-3,8-diazabicyclo[3.2.1]octan-3-yl]-6-[[1-(morpholinomethyl)cyclopropyl]methoxy]-1,3,5-triazin-2-yl]spiro[6,7-dihydro-5H-benzothiophene-4,3′-azetidine]-3-carbonitrile]",IC50,KRAS G12V/RAF1,10 to 100 µM
same,IC50,[1],100 to 1000 nM
same,IC50,w.t. KRAS/RAF1,1 to 10 µM
"N#Cc1c(N)sc2c1C1(CC2)CN(c2nc(OCC3(CN4CCOCC4)CC3)nc(N3CCCC4(C3)NC(=O)NC4=O)n2)C1 (stereo not drawn) [Compound 7, 2-amino-1′-[4-(2,4-dioxo-1,3,9-triazaspiro[4.5]decan-9-yl)-6-[[1-(morpholinomethyl)cyclopropyl]methoxy]-1,3,5-triazin-2-yl]spiro[5,6-dihydrocyclopenta[b]thiophene-4,3′-azetidine]-3-carbonitrile]",IC50,KRAS G12V/RAF1,0.1 to 1 µM
same,IC50,[1],< 10 nM
same,IC50,w.t. KRAS/RAF1,0.1 to 1 µM
"C[C@@]1(O)CCCN(c2nc(OC[C@@]34CCCN3C[C@H](F)C4)nc(N3CC4(CCc5sc(N)c(C#N)c54)C3)n2)C1 [Compound 10, 2-amino-1′-[4-[[(2R,8S)-2-fluoro-1,2,3,5,6,7-hexahydropyrrolizin-8-yl]methoxy]-6-[(3R)-3-hydroxy-3-methyl-1-piperidyl]-1,3,5-triazin-2-yl]spiro[5,6-dihydrocyclopenta[b]thiophene-4,3′-azetidine]-3-carbonitrile]",IC50,KRAS G12V/RAF1,1 to 10 µM
same,IC50,[1],< 10 nM
same,IC50,w.t. KRAS/RAF1,1 to 10 µM
"N#Cc1c(N)sc2c1C1(CC2)CN(c2nc(OC[C@@]34CCCN3C[C@H](F)C4)nc(N3CCCC(C#N)C3)n2)C1 (stereo partly drawn) [Compound 13, 2-amino-1′-[4-(3-cyano-1-piperidyl)-6-[[(2R,8S)-2-fluoro-1,2,3,5,6,7-hexahydropyrrolizin-8-yl]methoxy]-1,3,5-triazin-2-yl]spiro[5,6-dihydrocyclopenta[b]thiophene-4,3′-azetidine]-3-carbonitrile]",IC50,KRAS G12V/RAF1,1 to 10 µM
same,IC50,[1],10 to 100 nM
same,IC50,w.t. KRAS/RAF1,1 to 10 µM
